Calls of active or inactive are those of the source. For most assays here, no stated cut-off is given here; in the data, actives have a measured Kd and inactives only a lower limit.
Assays:
[1] = target: Glycogen synthase kinase-3 beta (Homo sapiens, UniProt P49841)
[2] = target: T1, Interleukin-1 receptor-associated kinase 3 (Homo sapiens, UniProt Q9Y616)
T1 sequence (Q9Y616 whole entry): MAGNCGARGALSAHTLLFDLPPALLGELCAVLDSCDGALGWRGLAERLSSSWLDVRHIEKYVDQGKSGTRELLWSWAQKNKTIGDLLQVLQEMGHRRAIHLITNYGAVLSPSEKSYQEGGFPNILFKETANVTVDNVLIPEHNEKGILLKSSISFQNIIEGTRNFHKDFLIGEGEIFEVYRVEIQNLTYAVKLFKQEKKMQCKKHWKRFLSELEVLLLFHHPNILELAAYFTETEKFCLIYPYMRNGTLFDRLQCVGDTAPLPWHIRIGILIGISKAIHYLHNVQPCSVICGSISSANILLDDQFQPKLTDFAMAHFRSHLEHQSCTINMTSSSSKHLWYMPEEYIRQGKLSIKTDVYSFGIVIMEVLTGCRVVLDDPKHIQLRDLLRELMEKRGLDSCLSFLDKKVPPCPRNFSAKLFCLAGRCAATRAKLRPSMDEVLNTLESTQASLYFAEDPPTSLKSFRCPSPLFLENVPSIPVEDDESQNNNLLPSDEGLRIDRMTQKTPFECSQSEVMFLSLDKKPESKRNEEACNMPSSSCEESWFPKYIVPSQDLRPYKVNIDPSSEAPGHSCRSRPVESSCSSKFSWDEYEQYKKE

[3] = target: Eukaryotic translation initiation factor 2-alpha kinase 1 (Homo sapiens, UniProt Q9BQI3)
[4] = target: T2, Serine/threonine-protein kinase TAO3 (Homo sapiens, UniProt Q9H2K8)
T2 sequence (Q9H2K8 whole entry): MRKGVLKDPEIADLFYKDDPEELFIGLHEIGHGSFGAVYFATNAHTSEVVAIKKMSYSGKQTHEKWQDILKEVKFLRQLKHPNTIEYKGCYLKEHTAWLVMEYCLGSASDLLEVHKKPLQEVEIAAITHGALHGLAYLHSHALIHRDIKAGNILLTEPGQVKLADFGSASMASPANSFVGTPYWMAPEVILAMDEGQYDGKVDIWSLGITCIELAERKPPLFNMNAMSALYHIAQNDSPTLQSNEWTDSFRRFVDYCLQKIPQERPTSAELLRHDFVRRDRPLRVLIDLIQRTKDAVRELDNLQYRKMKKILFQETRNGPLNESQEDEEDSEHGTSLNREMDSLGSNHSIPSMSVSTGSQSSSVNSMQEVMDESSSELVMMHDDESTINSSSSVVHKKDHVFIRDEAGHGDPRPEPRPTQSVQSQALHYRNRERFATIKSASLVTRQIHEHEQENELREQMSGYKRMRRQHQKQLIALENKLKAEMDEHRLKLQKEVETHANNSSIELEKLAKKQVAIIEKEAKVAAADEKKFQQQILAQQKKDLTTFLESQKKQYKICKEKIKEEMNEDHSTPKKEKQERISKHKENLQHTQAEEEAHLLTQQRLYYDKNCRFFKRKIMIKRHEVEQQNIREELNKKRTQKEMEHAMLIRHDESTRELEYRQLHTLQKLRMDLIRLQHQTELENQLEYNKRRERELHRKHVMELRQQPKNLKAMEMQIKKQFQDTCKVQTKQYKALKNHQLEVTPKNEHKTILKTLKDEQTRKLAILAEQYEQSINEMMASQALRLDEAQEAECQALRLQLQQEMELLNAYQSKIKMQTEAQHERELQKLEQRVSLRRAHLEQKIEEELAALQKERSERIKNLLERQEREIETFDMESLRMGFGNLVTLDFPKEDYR

[5] = target: Mitogen-activated protein kinase kinase kinase kinase 1 (Homo sapiens, UniProt Q92918)
[6] = target: T3, Bifunctional phosphoribosylaminoimidazole carboxylase/phosphoribosylaminoimidazole succinocarboxamide synthetase (Homo sapiens, UniProt P22234)
T3 sequence (P22234 whole entry): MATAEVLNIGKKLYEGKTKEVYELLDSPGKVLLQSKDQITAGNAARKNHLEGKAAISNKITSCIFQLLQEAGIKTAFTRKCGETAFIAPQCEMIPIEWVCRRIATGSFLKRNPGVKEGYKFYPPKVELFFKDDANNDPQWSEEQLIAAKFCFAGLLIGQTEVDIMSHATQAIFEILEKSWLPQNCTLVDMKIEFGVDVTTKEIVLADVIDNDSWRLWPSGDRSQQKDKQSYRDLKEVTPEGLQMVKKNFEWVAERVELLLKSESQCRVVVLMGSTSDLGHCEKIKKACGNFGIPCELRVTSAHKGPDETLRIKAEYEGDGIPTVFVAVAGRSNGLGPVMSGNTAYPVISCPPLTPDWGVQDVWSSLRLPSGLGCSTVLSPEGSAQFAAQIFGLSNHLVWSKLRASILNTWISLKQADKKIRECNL

[7] = target: cAMP-dependent protein kinase catalytic subunit gamma (Homo sapiens, UniProt P22612)
[8] = target: T4, ATP-dependent 6-phosphofructokinase, platelet type (Homo sapiens, UniProt Q01813)
T4 sequence (Q01813 whole entry): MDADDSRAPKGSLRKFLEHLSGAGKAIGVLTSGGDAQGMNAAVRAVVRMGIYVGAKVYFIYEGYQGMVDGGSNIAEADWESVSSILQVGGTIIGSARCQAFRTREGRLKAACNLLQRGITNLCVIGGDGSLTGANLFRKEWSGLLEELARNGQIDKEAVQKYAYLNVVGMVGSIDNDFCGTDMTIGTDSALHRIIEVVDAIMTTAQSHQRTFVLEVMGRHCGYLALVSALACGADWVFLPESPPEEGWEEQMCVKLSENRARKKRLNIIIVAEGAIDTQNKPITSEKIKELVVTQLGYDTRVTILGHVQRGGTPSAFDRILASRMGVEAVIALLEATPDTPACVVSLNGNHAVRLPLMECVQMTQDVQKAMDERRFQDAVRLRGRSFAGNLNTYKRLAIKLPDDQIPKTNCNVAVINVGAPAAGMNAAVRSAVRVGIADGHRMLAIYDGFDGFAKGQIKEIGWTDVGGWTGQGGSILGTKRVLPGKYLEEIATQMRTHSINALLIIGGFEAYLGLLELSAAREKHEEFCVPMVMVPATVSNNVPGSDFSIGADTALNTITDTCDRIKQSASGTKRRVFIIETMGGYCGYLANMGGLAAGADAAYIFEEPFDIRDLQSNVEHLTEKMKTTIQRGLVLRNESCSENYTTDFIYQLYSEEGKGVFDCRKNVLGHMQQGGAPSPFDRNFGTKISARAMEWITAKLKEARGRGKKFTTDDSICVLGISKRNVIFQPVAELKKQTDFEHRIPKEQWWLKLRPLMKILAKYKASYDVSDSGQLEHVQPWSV

Eukaryotic translation initiation factor 2-alpha kinase 1, sequence (Q9BQI3 whole entry): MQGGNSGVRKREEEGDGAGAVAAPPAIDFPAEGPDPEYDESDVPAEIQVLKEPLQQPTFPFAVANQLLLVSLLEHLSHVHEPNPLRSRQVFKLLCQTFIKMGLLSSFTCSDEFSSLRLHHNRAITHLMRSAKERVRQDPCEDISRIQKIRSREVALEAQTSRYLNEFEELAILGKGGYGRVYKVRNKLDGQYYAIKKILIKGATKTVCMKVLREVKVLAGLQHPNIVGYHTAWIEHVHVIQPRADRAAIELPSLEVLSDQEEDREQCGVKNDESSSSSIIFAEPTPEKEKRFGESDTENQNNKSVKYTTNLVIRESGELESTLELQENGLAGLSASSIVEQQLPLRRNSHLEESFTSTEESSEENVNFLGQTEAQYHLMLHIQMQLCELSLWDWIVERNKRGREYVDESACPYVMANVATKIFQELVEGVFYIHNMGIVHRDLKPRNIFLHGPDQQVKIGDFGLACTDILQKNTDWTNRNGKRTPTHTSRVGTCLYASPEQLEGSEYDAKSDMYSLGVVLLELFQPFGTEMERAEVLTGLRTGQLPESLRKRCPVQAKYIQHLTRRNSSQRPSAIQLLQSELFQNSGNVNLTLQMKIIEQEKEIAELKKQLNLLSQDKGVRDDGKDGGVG
Mitogen-activated protein kinase kinase kinase kinase 1, sequence (Q92918 whole entry): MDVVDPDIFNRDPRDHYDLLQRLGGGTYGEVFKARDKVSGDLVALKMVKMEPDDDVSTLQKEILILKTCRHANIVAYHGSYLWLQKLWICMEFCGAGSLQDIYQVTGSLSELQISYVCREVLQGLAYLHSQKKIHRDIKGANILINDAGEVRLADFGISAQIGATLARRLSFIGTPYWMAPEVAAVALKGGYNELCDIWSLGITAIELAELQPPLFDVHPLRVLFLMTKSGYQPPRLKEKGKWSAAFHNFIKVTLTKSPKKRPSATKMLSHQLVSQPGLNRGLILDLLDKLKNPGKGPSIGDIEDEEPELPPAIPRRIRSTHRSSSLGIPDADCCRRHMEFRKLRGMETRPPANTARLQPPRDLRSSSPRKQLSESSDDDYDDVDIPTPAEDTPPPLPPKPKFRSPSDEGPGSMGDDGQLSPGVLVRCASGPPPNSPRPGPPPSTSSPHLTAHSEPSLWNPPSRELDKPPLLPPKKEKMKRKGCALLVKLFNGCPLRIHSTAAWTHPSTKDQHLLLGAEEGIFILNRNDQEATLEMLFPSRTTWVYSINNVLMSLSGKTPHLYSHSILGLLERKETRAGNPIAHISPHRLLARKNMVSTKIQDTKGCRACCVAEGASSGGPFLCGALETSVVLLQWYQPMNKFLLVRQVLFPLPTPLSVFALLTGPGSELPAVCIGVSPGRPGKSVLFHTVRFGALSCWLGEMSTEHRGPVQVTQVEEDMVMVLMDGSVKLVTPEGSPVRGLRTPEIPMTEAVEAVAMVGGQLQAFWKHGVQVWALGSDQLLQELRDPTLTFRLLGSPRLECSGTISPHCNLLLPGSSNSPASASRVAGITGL
Glycogen synthase kinase-3 beta, sequence (P49841 whole entry): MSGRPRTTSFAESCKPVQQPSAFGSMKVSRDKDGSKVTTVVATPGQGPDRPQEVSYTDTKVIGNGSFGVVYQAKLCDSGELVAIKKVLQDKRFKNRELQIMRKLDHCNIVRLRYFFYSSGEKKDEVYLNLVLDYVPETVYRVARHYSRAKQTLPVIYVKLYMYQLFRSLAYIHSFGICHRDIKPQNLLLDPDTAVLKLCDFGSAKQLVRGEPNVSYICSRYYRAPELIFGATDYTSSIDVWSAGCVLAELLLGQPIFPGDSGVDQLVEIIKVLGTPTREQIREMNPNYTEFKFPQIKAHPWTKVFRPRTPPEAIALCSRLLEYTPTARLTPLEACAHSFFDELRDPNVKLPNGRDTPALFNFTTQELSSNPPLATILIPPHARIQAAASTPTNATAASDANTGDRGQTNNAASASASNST
cAMP-dependent protein kinase catalytic subunit gamma, sequence (P22612 whole entry): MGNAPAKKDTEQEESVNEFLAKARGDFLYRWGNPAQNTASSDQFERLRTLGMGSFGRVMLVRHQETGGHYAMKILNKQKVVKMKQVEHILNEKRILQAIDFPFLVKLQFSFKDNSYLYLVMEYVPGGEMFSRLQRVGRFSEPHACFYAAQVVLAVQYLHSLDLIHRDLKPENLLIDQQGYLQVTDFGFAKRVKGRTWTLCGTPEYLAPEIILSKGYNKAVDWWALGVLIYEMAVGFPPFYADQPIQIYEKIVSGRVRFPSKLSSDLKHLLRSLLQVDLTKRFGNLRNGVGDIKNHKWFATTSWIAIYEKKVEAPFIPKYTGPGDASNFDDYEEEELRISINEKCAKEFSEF

Row | Compound | Kd [1] | Kd [2] | Kd [3] | Kd [4] | Kd [5] | Kd [6] | Kd [7] | Kd [8]
1 | C[C@@H](Oc1cc(C(=O)Nc2ccc(C(=O)N3CCN(C)CC3)cc2)nnc1N)c1c(Cl)ccc(F)c1Cl | > 30 µM (inactive) | > 30 µM (inactive) | > 30 µM (inactive) | > 30 µM (inactive) | > 30 µM (inactive) | > 30 µM (inactive) | > 30 µM (inactive) | –
2 | C[C@H]1CNCCCN1S(=O)(=O)c1cccc2cncc(F)c12 | > 30 µM (inactive) | > 30 µM (inactive) | > 30 µM (inactive) | 11.8 µM (active) | > 30 µM (inactive) | > 30 µM (inactive) | > 30 µM (inactive) | > 30 µM (inactive)
3 | CCNC(=O)C#Cc1ccc2c(c1)NC(=O)/C2=C(\Nc1ccc(CN(C)C)cc1)c1ccccc1 | > 30 µM (inactive) | > 30 µM (inactive) | > 30 µM (inactive) | > 30 µM (inactive) | 0.875 µM (active) | > 30 µM (inactive) | > 30 µM (inactive) | > 30 µM (inactive)
4 | C=CC(=O)N1CCC[C@H](n2c(=O)n(-c3ccc(Oc4ccccc4)cc3)c3c(N)ncnc32)C1 | > 30 µM (inactive) | > 30 µM (inactive) | > 30 µM (inactive) | > 30 µM (inactive) | > 30 µM (inactive) | > 30 µM (inactive) | > 30 µM (inactive) | > 30 µM (inactive)
5 | COCc1c(-c2ccc(NC(=O)Nc3cc(C(F)(F)F)ccc3F)c(F)c2)c2c(N)ncnn2c1CN1CCOCC1 | > 30 µM (inactive) | > 30 µM (inactive) | > 30 µM (inactive) | > 30 µM (inactive) | > 30 µM (inactive) | > 30 µM (inactive) | > 30 µM (inactive) | > 30 µM (inactive)
6 | Nc1ncnc2c1c(-c1cccc(OCc3ccccc3)c1)cn2[C@H]1C[C@@H](CN2CCC2)C1 [AEW-541] | > 30 µM (inactive) | > 30 µM (inactive) | > 30 µM (inactive) | > 30 µM (inactive) | > 30 µM (inactive) | > 30 µM (inactive) | > 30 µM (inactive) | > 30 µM (inactive)
7 | Cc1nc(NC(=O)N2CCC[C@H]2C(N)=O)sc1-c1ccnc(C(C)(C)C(F)(F)F)c1 [ALPELISIB] | > 30 µM (inactive) | > 30 µM (inactive) | > 30 µM (inactive) | > 30 µM (inactive) | – | > 30 µM (inactive) | 1.99 µM (active) | > 30 µM (inactive)
8 | NC(=O)Nc1cc(-c2cccc(F)c2)sc1C(=O)N[C@H]1CCCNC1 [AZD-7762] | > 30 µM (inactive) | > 30 µM (inactive) | > 30 µM (inactive) | > 30 µM (inactive) | – | > 30 µM (inactive) | > 30 µM (inactive) | > 30 µM (inactive)
9 | C#Cc1cccc(Nc2ncnc3cc(OC)c(OCCCCCCC(=O)NO)cc23)c1 [CUDC-101] | > 30 µM (inactive) | > 30 µM (inactive) | > 30 µM (inactive) | > 30 µM (inactive) | > 30 µM (inactive) | > 30 µM (inactive) | > 30 µM (inactive) | –
10 | O=C(Nc1cc(C(F)(F)F)cc(C(F)(F)F)c1)c1cc(Cl)ccc1O [IMD-0354] | > 30 µM (inactive) | > 30 µM (inactive) | > 30 µM (inactive) | > 30 µM (inactive) | > 30 µM (inactive) | > 30 µM (inactive) | > 30 µM (inactive) | –
11 | Cn1cc(-c2cnc3ccc4ccc(CS(=O)(=O)NCc5ccccn5)cc4c(=O)c3c2)cn1 [MK-8033] | > 30 µM (inactive) | > 30 µM (inactive) | > 30 µM (inactive) | > 30 µM (inactive) | > 30 µM (inactive) | > 30 µM (inactive) | > 30 µM (inactive) | –
12 | CNC(=O)c1cc(Oc2ccc(NC(=O)Nc3cc(C(C)(C)C)nn3-c3ccc4ncccc4c3)c(F)c2)ccn1 [REBASTINIB] | > 30 µM (inactive) | > 30 µM (inactive) | – | 14.2 µM (active) | 0.566 µM (active) | > 30 µM (inactive) | > 30 µM (inactive) | > 30 µM (inactive)
13 | CO[C@H]1C[C@@H]2CC[C@@H](C)[C@@](O)(O2)C(=O)C(=O)N2CCCC[C@H]2C(=O)O[C@H]([C@H](C)C[C@@H]2CC[C@@H](OP(C)(C)=O)[C@H](OC)C2)CC(=O)[C@H](C)/C=C(\C)[C@@H](O)[C@@H](OC)C(=O)[C@H](C)C[C@H](C)/C=C/C=C/C=C/1C [RIDAFOROLIMUS] | > 30 µM (inactive) | > 30 µM (inactive) | > 30 µM (inactive) | > 30 µM (inactive) | > 30 µM (inactive) | > 30 µM (inactive) | > 30 µM (inactive) | –
14 | Cn1cc(-c2cnn3c(N)c(Br)c([C@@H]4CCCNC4)nc23)cn1 [SCH-900776] | > 30 µM (inactive) | > 30 µM (inactive) | > 30 µM (inactive) | > 30 µM (inactive) | > 30 µM (inactive) | > 30 µM (inactive) | > 30 µM (inactive) | –
15 | Cn1ncc(Cl)c1-c1cc(C(=O)N[C@H](CN)Cc2ccc(F)c(F)c2)oc1Cl [UPROSERTIB] | > 30 µM (inactive) | > 30 µM (inactive) | > 30 µM (inactive) | > 30 µM (inactive) | – | > 30 µM (inactive) | > 30 µM (inactive) | > 30 µM (inactive)
16 | CC(C)c1cc(CNc2nc(Nc3cc(C4CC4)[nH]n3)cc(N3CCN(C)CC3)n2)on1 [XL-228] | > 30 µM (inactive) | 0.08 µM (active) | – | > 30 µM (inactive) | 0.015 µM (active) | > 30 µM (inactive) | > 30 µM (inactive) | > 30 µM (inactive)
